{
  "source": "paper PMC3184404",
  "about": "(The FEBS journal, 2011)",
  "key": {"[1]": {"biological_target": "T1, Bovine liver glutamate dehydrogenase (Bos taurus, UniProt P00366)", "T1 sequence (P00366 58-558)": "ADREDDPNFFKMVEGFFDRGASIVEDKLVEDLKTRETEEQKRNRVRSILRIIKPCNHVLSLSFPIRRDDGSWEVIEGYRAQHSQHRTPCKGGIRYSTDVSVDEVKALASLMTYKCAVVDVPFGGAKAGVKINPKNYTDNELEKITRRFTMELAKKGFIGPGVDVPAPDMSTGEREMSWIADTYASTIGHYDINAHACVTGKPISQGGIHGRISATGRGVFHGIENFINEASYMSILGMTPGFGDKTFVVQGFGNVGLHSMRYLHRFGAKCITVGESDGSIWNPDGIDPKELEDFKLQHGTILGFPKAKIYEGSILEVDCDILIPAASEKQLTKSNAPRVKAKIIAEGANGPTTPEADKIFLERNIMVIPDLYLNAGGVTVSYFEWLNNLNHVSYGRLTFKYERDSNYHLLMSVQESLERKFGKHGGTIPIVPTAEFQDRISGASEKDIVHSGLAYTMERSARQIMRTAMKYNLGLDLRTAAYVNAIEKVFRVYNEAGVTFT", "details": "cited from earlier work"}, "[2]": {"biological_target": "T1, Bovine liver glutamate dehydrogenase", "experiment": "Fluorescence titrations of reduced cofactor binding", "details": "NADPH, pH 8.0"}, "[3]": {"biological_target": "T1, Bovine liver glutamate dehydrogenase", "experiment": "Thermal stability by differential scanning calorimetry", "type": "binding"}, "[4]": {"biological_target": "T1, Bovine liver glutamate dehydrogenase", "details": "plus zinc"}, "[5]": {"test_system": "immobilized trypsin", "experiment": "Control experiments with azocasein on immobilized protease", "type": "biochemical", "details": "azocasein as substrate, zinc at the concentrations used"}, "[6]": {"biological_target": "T1, Bovine liver glutamate dehydrogenase", "experiment": "Initial rate kinetics of oxidative deamination, zinc inhibition", "type": "biochemical"}, "[7]": {"biological_target": "T1, Bovine liver glutamate dehydrogenase", "details": "pH 7.0, 1mM NAD^+"}, "[8]": {"details": "enzyme + 200mM norvaline, pH 7.0"}, "[9]": {"details": "enzyme + 20mM glutamate + zinc, pH 7.0"}, "[10]": {"details": "enzyme + 200mM norvaline + zinc, pH 7.0"}, "[11]": {"details": "enzyme + zinc, 0.1 M phosphate pH 7.0"}, "[12]": {"details": "control experiments, data not shown"}},
  "note": "Where two headings read alike, the source gives them in different places.",
  "data": [
    {"smiles": "[Cl-].[Cl-].[Cl-].[Eu+3]", "note": "[Eu^3+, europium (III) chloride]", "values": [
      {"measurement": "Effect on the ability of zinc to inhibit the enzyme", "setting": "[1]", "value": "reversed"},
      {"measurement": "Effect on the activity of the enzyme", "setting": "[1]", "value": "no effect"}
    ]},
    {"smiles": "NC(=O)C1=CN([C@@H]2O[C@H](COP(=O)(O)OP(=O)(O)OC[C@H]3O[C@@H](n4cnc5c(N)ncnc54)[C@H](OP(=O)(O)O)[C@@H]3O)[C@@H](O)[C@H]2O)C=CC1", "note": "[NADPH, Nicotinamide Adenine Dinucleotide Phosphate]", "values": [
      {"measurement": "Kd", "setting": "[2]; + 100 μM zinc", "value": 1.04, "unit": "µM"},
      {"measurement": "Kd", "setting": "[2]; +20mM glutamate + 100 μM zinc", "value": 1.72, "unit": "µM"},
      {"measurement": "Kd", "setting": "[2]; +20mM glutamate", "value": 2.4, "unit": "µM"},
      {"measurement": "Kd", "setting": "[2]; +200mM norvaline + 100 μM zinc", "value": 9.27, "unit": "µM"},
      {"measurement": "Kd", "setting": "[2]; +200mM norvaline", "value": 7.35, "unit": "µM"},
      {"measurement": "Kd", "setting": "[2]; no additions", "value": 6.33, "unit": "µM"}
    ]},
    {"smiles": "CCC[C@H](N)C(=O)O", "note": "[Norvaline, norvaline]", "values": [
      {"measurement": "TM", "setting": "[3]; [8]", "value": 67.8, "unit": "°C"},
      {"measurement": "ΔH", "setting": "[3]; [8]", "value": 188.7},
      {"measurement": "ΔS", "setting": "[3]; [8]", "value": 0.554}
    ]},
    {"smiles": "CC(=O)[O-].CC(=O)[O-].[Zn+2]", "note": "[Zinc, zinc acetate]", "values": [
      {"measurement": "TM", "setting": "[3]; [9]", "value": 59.3, "unit": "°C"},
      {"measurement": "ΔH", "setting": "[3]; [9]", "value": 126.4},
      {"measurement": "ΔS", "setting": "[3]; [9]", "value": 0.381},
      {"measurement": "TM", "setting": "[3]; [10]", "value": 68.1, "unit": "°C"},
      {"measurement": "ΔH", "setting": "[3]; [10]", "value": 179.9},
      {"measurement": "ΔS", "setting": "[3]; [10]", "value": 0.528},
      {"measurement": "TM", "setting": "[3]; [11]", "value": 59.2, "unit": "°C"},
      {"measurement": "ΔH", "setting": "[3]; [11]", "value": 128.9},
      {"measurement": "ΔS", "setting": "[3]; [11]", "value": 0.388},
      {"measurement": "Fragment 3446 (residues 114–146) Peak Height relative to ACTH standard", "setting": "[4]; 5 Mins, pH 8.0", "value": 0.52},
      {"measurement": "Fragment 4089 (residues 1–35) Peak Height relative to ACTH standard", "setting": "[4]; 5 Mins, pH 8.0", "value": 0},
      {"measurement": "Fragment 34,645 (residues 144–459) Peak Height relative to Native", "setting": "[4]; 5 Mins, pH 8.0", "value": 0.17},
      {"measurement": "Fragment 3446 (residues 114–146) Peak Height relative to ACTH standard", "setting": "[4]; 10 Mins, pH 8.0", "value": 0.54},
      {"measurement": "Fragment 4089 (residues 1–35) Peak Height relative to ACTH standard", "setting": "[4]; 10 Mins, pH 8.0", "value": 0.16},
      {"measurement": "Fragment 34,645 (residues 144–459) Peak Height relative to Native", "setting": "[4]; 10 Mins, pH 8.0", "value": 0.18},
      {"measurement": "Fragment 3446 (residues 114–146) Peak Height relative to ACTH standard", "setting": "[4]; 15 Mins, pH 8.0", "value": 0.75},
      {"measurement": "Fragment 4089 (residues 1–35) Peak Height relative to ACTH standard", "setting": "[4]; 15 Mins, pH 8.0", "value": 0.68},
      {"measurement": "Fragment 34,645 (residues 144–459) Peak Height relative to Native", "setting": "[4]; 15 Mins, pH 8.0", "value": 0.86},
      {"measurement": "Fragment 3446 (residues 114–146) Peak Height relative to ACTH standard", "setting": "[4]; Time = 0, pH 8.0", "value": 0},
      {"measurement": "Fragment 4089 (residues 1–35) Peak Height relative to ACTH standard", "setting": "[4]; Time = 0, pH 8.0", "value": 0},
      {"measurement": "Fragment 34,645 (residues 144–459) Peak Height relative to Native", "setting": "[4]; Time = 0, pH 8.0", "value": 0},
      {"measurement": "Effect on the immobilized protease", "setting": "[5]", "value": "did not effect"},
      {"measurement": "Inhibition at saturating concentrations of substrates", "setting": "[6]", "value": "potent inhibitor"},
      {"measurement": "Inhibition of oxidative deamination with glutamate as substrate", "setting": "[6]; pH 8", "value": "effective inhibition"},
      {"measurement": "Inhibition of oxidative deamination with norvaline as substrate", "setting": "[6]; pH 8", "value": "no significant inhibition"},
      {"measurement": "Pre-Steady State Burst Amplitude", "setting": "[7]; 50mM glutamate + 100μM zinc", "value": "1.053 340F450"},
      {"measurement": "Pre-Steady State Burst Rate", "setting": "[7]; 50mM glutamate + 100μM zinc", "value": "0.858 340F450/sec"},
      {"measurement": "Steady State Rate", "setting": "[7]; 50mM glutamate + 100μM zinc", "value": "0.187 340F450/sec"},
      {"measurement": "Pre-Steady State Burst Amplitude", "setting": "[7]; 50mM glutamate + 200μM zinc", "value": "0.771 340F450"},
      {"measurement": "Pre-Steady State Burst Rate", "setting": "[7]; 50mM glutamate + 200μM zinc", "value": "0.972 340F450/sec"},
      {"measurement": "Steady State Rate", "setting": "[7]; 50mM glutamate + 200μM zinc", "value": "0.158 340F450/sec"}
    ]},
    {"smiles": "[Mg+2]", "note": "[magnesium]", "values": [
      {"measurement": "Effect on the activity of the enzyme", "setting": "[6]; [12]", "value": "no effect"},
      {"measurement": "Effect on the inhibition by zinc", "setting": "[6]; [12]", "value": "no effect"}
    ]}
  ]
}
